The results in this text go back to ChEMBL document CHEMBL5620423, “Highly-tumor-targeted PAD4 inhibitors with PBA modification inhibit tumors in vivo by specifically inhibiting the PAD4-H3cit-NETs pathway in neutrophils” (Eur J Med Chem, 2023).

Active and inactive are the calls of the source. The calls are words filed in the database; no cut-off is given here. Some results are limits rather than exact numbers.

In the first data set the target is Protein-arginine deiminase type-4 (Homo sapiens, UniProt Q9UM07). Kind of data set: Inhibition of PAD4 (unknown origin) using BAEE as substrate by colorimetric analysis.
Sequence of Protein-arginine deiminase type-4 (Q9UM07 whole entry): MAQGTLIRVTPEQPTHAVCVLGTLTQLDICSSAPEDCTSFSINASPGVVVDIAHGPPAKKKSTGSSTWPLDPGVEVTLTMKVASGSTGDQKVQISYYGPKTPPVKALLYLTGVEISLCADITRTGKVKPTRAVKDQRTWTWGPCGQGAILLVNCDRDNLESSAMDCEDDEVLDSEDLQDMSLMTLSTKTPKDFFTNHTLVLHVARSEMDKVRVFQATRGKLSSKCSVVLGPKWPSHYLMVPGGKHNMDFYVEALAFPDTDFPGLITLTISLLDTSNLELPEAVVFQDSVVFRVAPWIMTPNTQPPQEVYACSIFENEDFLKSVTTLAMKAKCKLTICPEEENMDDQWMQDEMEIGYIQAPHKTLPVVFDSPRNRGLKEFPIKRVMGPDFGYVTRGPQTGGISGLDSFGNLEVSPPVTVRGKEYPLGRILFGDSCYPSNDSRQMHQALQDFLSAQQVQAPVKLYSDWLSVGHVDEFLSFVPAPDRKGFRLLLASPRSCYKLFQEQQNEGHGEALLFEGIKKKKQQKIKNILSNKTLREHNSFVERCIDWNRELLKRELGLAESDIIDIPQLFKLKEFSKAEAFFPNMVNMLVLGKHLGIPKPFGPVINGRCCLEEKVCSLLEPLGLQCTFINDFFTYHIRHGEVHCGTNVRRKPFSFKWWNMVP
Conditions: not given
In general, IC50 refers to the concentration that gives 50% inhibition. As to `CN(C)c1ccc2cc(C(=O)N[C@@H](CCCNC(=N)CCl)C(=O)NCc3ccccc3)ccc2c1`, the IC50 is 2.86 µM.

In a further data set the test system is 4T1. Kind of data set: Cytotoxicity against mouse 4T1 cells assessed as reduction in cell viability measured after 48 hrs by MTT assay. As to conditions: 4T1, 48 h.
Take `N=C(CCl)NCCC[C@H](NC(=O)c1ccccc1B(O)O)C(=O)NCc1ccccc1`: the IC50 is greater than 100 µM.
For `N=C(CCl)NCCC[C@H](NC(=O)c1cc([N+](=O)[O-])c2nonc2c1)C(=O)NCc1ccc(B(O)O)cc1`, the half-maximal inhibitory concentration (IC50) is greater than 100 µM.
As for `CN(C)c1ccc2cc(C(=O)N[C@@H](CCCNC(=N)CCl)C(=O)NCc3ccccc3)ccc2c1`, the IC50 amounted to 11.9 µM.
Same read-out and setting: next, `N=C(CCl)NCCC[C@H](NC(=O)c1cc([N+](=O)[O-])c2nonc2c1)C(=O)NCc1ccccc1B(O)O`: greater than 100 µM; `N=C(CCl)NCCC[C@H](NC(=O)c1cccc(B(O)O)c1)C(=O)NCc1ccccc1`: greater than 100 µM; `N=C(CCl)NCCC[C@H](NC(=O)c1cc(F)cc(B(O)O)c1)C(=O)NCc1ccccc1`: greater than 100 µM.
The same measure, in the same setting: next, `N=C(CCl)NCCC[C@H](NC(=O)c1ccc(F)c(B(O)O)c1)C(=O)NCc1ccccc1`: greater than 100 µM; `N=C(CCl)NCCC[C@H](NC(=O)c1ccc(B(O)O)cc1)C(=O)NCc1ccccc1`: greater than 100 µM; `COc1cccc2c1C(=O)c1c(O)c3c(c(O)c1C2=O)C[C@@](O)(C(=O)CO)C[C@@H]3O[C@H]1C[C@H](N)[C@H](O)[C@H](C)O1` [DOXORUBICIN]: 1.63 µM.
Take `N=C(CCl)NCCC[C@H](NC(=O)c1cc(B(O)O)ccc1F)C(=O)NCc1ccccc1`: the 50% inhibitory concentration (IC50) was greater than 100 µM.
Same read-out and setting: next, `N=C(CCl)NCCC[C@H](NC(=O)c1cccc(B(O)O)c1F)C(=O)NCc1ccccc1`: greater than 100 µM; `N=C(CCl)NCCC[C@H](NC(=O)c1cc(B(O)O)cc([N+](=O)[O-])c1)C(=O)NCc1ccccc1`: greater than 100 µM.

In another data set the test system is Sarcoma-180. The experiment in a line: Antitumor activity against Sarcoma-180 mouse model assessed as tumor weight at 2 umol/kg (reference value: 1.65 +/-0.2 gms). It is filed as functional. As to conditions: dose 2 µmol/kg.
With `COc1cccc2c1C(=O)c1c(O)c3c(c(O)c1C2=O)C[C@@](O)(C(=O)CO)C[C@@H]3O[C@H]1C[C@H](N)[C@H](O)[C@H](C)O1` [DOXORUBICIN], the Activity was 0.94 g.

The test system of a further data set is Sarcoma-180. The experiment in a line: Antitumor activity against Sarcoma-180 mouse model assessed as tumor weight at 10 umol/kg (reference value: 1.65 +/-0.2 gms). As to conditions: dose 10 µmol/kg. Type of data set: functional.
Regarding `N=C(CCl)NCCC[C@H](NC(=O)c1ccccc1B(O)O)C(=O)NCc1ccccc1`, the Activity is on record as 1 g.
Same read-out and setting: next, `N=C(CCl)NCCC[C@H](NC(=O)c1cc([N+](=O)[O-])c2nonc2c1)C(=O)NCc1ccc(B(O)O)cc1`: 0.87 g.
The same measure, in the same setting: in the case of `CN(C)c1ccc2cc(C(=O)N[C@@H](CCCNC(=N)CCl)C(=O)NCc3ccccc3)ccc2c1` it was 0.94 g; in that of `N=C(CCl)NCCC[C@H](NC(=O)c1cc([N+](=O)[O-])c2nonc2c1)C(=O)NCc1ccccc1B(O)O`, 0.89 g; in that of `N=C(CCl)NCCC[C@H](NC(=O)c1cccc(B(O)O)c1)C(=O)NCc1ccccc1`, 1.04 g.
Take `N=C(CCl)NCCC[C@H](NC(=O)c1cc(F)cc(B(O)O)c1)C(=O)NCc1ccccc1`: the Activity is listed as 1.01 g.
The same measure, in the same setting: in the case of `N=C(CCl)NCCC[C@H](NC(=O)c1ccc(F)c(B(O)O)c1)C(=O)NCc1ccccc1` it was 1.03 g; in that of `N=C(CCl)NCCC[C@H](NC(=O)c1ccc(B(O)O)cc1)C(=O)NCc1ccccc1`, 0.98 g.
Consider `N=C(CCl)NCCC[C@H](NC(=O)c1cc(B(O)O)ccc1F)C(=O)NCc1ccccc1`, for which the Activity was found to be 1.14 g.
Regarding `N=C(CCl)NCCC[C@H](NC(=O)c1cccc(B(O)O)c1F)C(=O)NCc1ccccc1`, the Activity was determined as 0.93 g.
On to `N=C(CCl)NCCC[C@H](NC(=O)c1cc(B(O)O)cc([N+](=O)[O-])c1)C(=O)NCc1ccccc1`, for which the Activity is reported as 1.19 g.

The next data set deals with Sarcoma-180. Kind of data set: Antitumor activity against Sarcoma-180 mouse model assessed as inhibition of tumor growth at 2 umol/kg. Type of data set: functional.
Conditions: not given
The inhibition in vivo is the share of the control response that was lost under treatment. Regarding `COc1cccc2c1C(=O)c1c(O)c3c(c(O)c1C2=O)C[C@@](O)(C(=O)CO)C[C@@H]3O[C@H]1C[C@H](N)[C@H](O)[C@H](C)O1` [DOXORUBICIN], the inhibition in vivo at 2 µmol/kg came out at 42.7%.

Another data set has as its system Sarcoma-180. The experiment in a line: Antitumor activity against Sarcoma-180 mouse model assessed as inhibition of tumor growth at 10 umol/kg. Type of data set: functional.
Conditions: not given
For `N=C(CCl)NCCC[C@H](NC(=O)c1ccccc1B(O)O)C(=O)NCc1ccccc1`, the inhibition in vivo at 10 µmol/kg is 39.2%.
As for `N=C(CCl)NCCC[C@H](NC(=O)c1cc([N+](=O)[O-])c2nonc2c1)C(=O)NCc1ccc(B(O)O)cc1`, the inhibition in vivo at 10 µmol/kg is 47.4%.
Same read-out and setting: in the case of `CN(C)c1ccc2cc(C(=O)N[C@@H](CCCNC(=N)CCl)C(=O)NCc3ccccc3)ccc2c1` it was 42.7%.
Same read-out and setting: next, `N=C(CCl)NCCC[C@H](NC(=O)c1cc([N+](=O)[O-])c2nonc2c1)C(=O)NCc1ccccc1B(O)O`: 45.7%; `N=C(CCl)NCCC[C@H](NC(=O)c1cccc(B(O)O)c1)C(=O)NCc1ccccc1`: 36.7%; `N=C(CCl)NCCC[C@H](NC(=O)c1cc(F)cc(B(O)O)c1)C(=O)NCc1ccccc1`: 38.7%.
As to `N=C(CCl)NCCC[C@H](NC(=O)c1ccc(F)c(B(O)O)c1)C(=O)NCc1ccccc1`, the inhibition in vivo at 10 µmol/kg was determined as 37.5%.
On the same count and under the same terms, next, `N=C(CCl)NCCC[C@H](NC(=O)c1ccc(B(O)O)cc1)C(=O)NCc1ccccc1`: 40.3%; `N=C(CCl)NCCC[C@H](NC(=O)c1cc(B(O)O)ccc1F)C(=O)NCc1ccccc1`: 30.8%.
Take `N=C(CCl)NCCC[C@H](NC(=O)c1cccc(B(O)O)c1F)C(=O)NCc1ccccc1`: the inhibition in vivo at 10 µmol/kg was determined as 43.7%.
As to `N=C(CCl)NCCC[C@H](NC(=O)c1cc(B(O)O)cc([N+](=O)[O-])c1)C(=O)NCc1ccccc1`, the inhibition in vivo at 10 µmol/kg stood at 27.6%.

The target in the next data set is Protein-arginine deiminase type-4 (Mus musculus) (UniProt Q9Z183). Kind of data set: Inhibition of PAD4 in mouse bone marrow neutrophils assessed as reduction in H3 cit expression by measuring red filamentous histone structure at 50 uM measured after 48 hrs by Hoechst33342 staining based confocal laser scanning microscopy. As to conditions: Neutrophil. Type of data set: cell-based.
Sequence of Protein-arginine deiminase type-4 (Mus musculus) (Q9Z183 whole entry): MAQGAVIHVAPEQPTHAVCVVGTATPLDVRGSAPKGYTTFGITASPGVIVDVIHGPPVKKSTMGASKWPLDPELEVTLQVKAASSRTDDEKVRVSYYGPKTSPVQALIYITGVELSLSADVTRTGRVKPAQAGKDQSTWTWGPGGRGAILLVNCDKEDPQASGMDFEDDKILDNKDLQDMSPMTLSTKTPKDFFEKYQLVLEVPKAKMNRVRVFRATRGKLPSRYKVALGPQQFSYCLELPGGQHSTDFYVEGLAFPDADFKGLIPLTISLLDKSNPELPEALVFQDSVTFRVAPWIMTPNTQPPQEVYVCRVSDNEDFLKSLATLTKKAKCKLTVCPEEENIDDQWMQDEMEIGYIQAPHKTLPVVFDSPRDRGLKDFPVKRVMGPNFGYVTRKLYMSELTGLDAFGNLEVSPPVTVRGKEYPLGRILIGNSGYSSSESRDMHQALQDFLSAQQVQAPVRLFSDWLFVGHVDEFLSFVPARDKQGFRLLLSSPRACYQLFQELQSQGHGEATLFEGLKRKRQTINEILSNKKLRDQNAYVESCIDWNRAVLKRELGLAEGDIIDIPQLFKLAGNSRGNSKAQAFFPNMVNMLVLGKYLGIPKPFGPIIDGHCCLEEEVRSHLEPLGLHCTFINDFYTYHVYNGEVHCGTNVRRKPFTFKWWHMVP
As for `CN(C)c1ccc2cc(C(=O)N[C@@H](CCCNC(=N)CCl)C(=O)NCc3ccccc3)ccc2c1`, the inhibition entry is “Active”.

In a further data set the test system is 4T1. Kind of data set: Antitumor activity against mouse 4T1 cells xenografted in BALB/c mouse assessed as reduction in tumor volume at 10 umol/kg, iv for 21 days. Type of data set: functional, organism-based. As to conditions: dose 10.0 µmol/kg, time 21.0 day.
Regarding `CN(C)c1ccc2cc(C(=O)N[C@@H](CCCNC(=N)CCl)C(=O)NCc3ccccc3)ccc2c1`, the result was Active.

For a further data set, the system named is 4T1. Kind of data set: Antitumor activity against mouse 4T1 cells xenografted in BALB/c mouse assessed as reduction in tumor weight at 10 umol/kg, iv for 21 days. It is filed as functional, organism-based. The note with it: dose 10.0 µmol/kg, time 21.0 day.
On to `CN(C)c1ccc2cc(C(=O)N[C@@H](CCCNC(=N)CCl)C(=O)NCc3ccccc3)ccc2c1`, for which the result was Active.

System in the next data set: not listed separately
The experiment in a line: Toxicity in BALB/c mouse xenografted with mouse 4T1 cells assessed as decrease in body weight at 10 umol/kg, iv measured after 9 to 15 days. It is filed as organism-based. The note with it: in vivo, time 9-15 day, dose 10 µmol/kg.
Take `CN(C)c1ccc2cc(C(=O)N[C@@H](CCCNC(=N)CCl)C(=O)NCc3ccccc3)ccc2c1`: the Activity entry was “Toxic”.

In a further data set the test system is 4T1. Kind of data set: Anti-metastatic activity against mouse 4T1 cells xenografted in BALB/c mouse assessed as reduction in number of lung metastatic tumor nodules at 10 umol/kg, iv for 21 days. It is filed as functional, organism-based. The note with it: dose 10.0 µmol/kg, time 21.0 day.
In the case of `CN(C)c1ccc2cc(C(=O)N[C@@H](CCCNC(=N)CCl)C(=O)NCc3ccccc3)ccc2c1`, the outcome was Active.

System in another data set: not listed separately
The experiment in a line: Hepatotoxicity in BALB/c mouse xenografted with mouse 4T1 cells assessed as reduction in serum ALT level at 10 umol/kg, iv for 21 days. It is filed as toxicity, organism-based. As to conditions: in vivo, 504 h, dose 10 µmol/kg, time 21 day.
Take `CN(C)c1ccc2cc(C(=O)N[C@@H](CCCNC(=N)CCl)C(=O)NCc3ccccc3)ccc2c1`: the Activity result is recorded as “Toxic”.

System in another data set: not listed separately
The experiment in a line: Nephrotoxicity in BALB/c mouse xenografted with mouse 4T1 cells assessed as […] in serum creatinine level at 10 umol/kg, iv for 21 days. It is filed as toxicity, organism-based. The note with it: in vivo, 504 h, dose 10 µmol/kg, time 21 day.
Regarding `CN(C)c1ccc2cc(C(=O)N[C@@H](CCCNC(=N)CCl)C(=O)NCc3ccccc3)ccc2c1`, the Activity entry is “Toxic”.

System in the next data set: not listed separately
The experiment in a line: Nephrotoxicity in BALB/c mouse xenografted with mouse 4T1 cells assessed as reduction in serum BUN level at 10 umol/kg, iv for 21 days. It is filed as toxicity, organism-based. As to conditions: in vivo, 504 h, dose 10 µmol/kg, time 21 day.
`CN(C)c1ccc2cc(C(=O)N[C@@H](CCCNC(=N)CCl)C(=O)NCc3ccccc3)ccc2c1`: the Activity entry was “Toxic”.
